System: Haemonchus contortus
Test: In vivo nematode test Haemonchus contortus/sheep
Settings: sheep infected experimentally with Haemonchus contortus, treated after prepatency period; pure active compound applied orally and/or intravenously; dose at which nematode egg excretion with the faeces stopped completely
Method: In vivo nematode test Haemonchus contortus/sheep
The degree of effectiveness is determined by quantitatively determinating the nematode eggs excreted with the faeces before and after the treatment.

“tert-Butyl-N-Benzyl-N-propyl-L-leucyl-D-lactyl-N-^i -propyl-L-leucyl-D-3-phenyllactyl-N-^i propyl-L-leucyl-D-lactyl-N-^i propyl-L-leucyl-D-3-phenyllactate [Example 2]” was tested, and the “Dosis effectiva” value was 10 mg/kg.
